The subject of one data set is rats. The note with it: cited from earlier work.
The target of data set [1] is receptor of epidermal growth factor (Homo sapiens, UniProt P00533). In words: Tyrosine phosphorylation of epidermal growth factor receptor. The class given is cell-based.
Another data set in a line: Water solubility. In kind it is physicochemical.
The test system of data set [2] is K562/Vcr30 chronic myeloid leukemia cells (cytostatic-resistant). In words: Viability of leukemia cells, K562/Vcr30. The class given is cell-based, human. The note with it: Homo sapiens; K562/Vcr30, 72 h; read-out: IC50 for viability of leukemia cell lines. Here is the method:
(§1) The human chronic myeloid leukemia K562/S and K562/Vcr30 lines and the acute myeloid leukemia cell lines HL60/0 and HL60/Nov were obtained from ATCC. The K562/S and HL60/0 are wild type (non-resistant) cells, whereas K562/Vcr30 and HL60/Nov are cytostatic-resistant sublines. All leukemia cell lines were cultured in RPMI 1640 medium supplemented with 10% fetal bovine serum and with 2 mM glutamine, 1% benzyl-penicillin and streptomycin. The cells were grown in tissue culture flasks maintained at 95% air/5% CO2 atmosphere at 37° C. in a humidified incubator. For the experiments 25,000 cells were cultured in 60-mm plastic dishes or 96-well plastic plates. The experiments on leukemia cells were performed in collaboration with Associate professor Sigurd Vitols, Department of Pharmacology, Karolinska Hospital (Stockholm, Sweden).
(§2) Cell proliferation kit II (Roche Inc.) is based on calorimetric change of the yellow tetrazolium salt XTT in orange formazan dye by the respiratory chain of viable cells (Roehm, N W, et al., J Immunol Methods 142:257-265, 1991). Cells seeded at a concentration of 5000/well in 100 μl medium in a 96-well plate were treated with different drugs in the given concentration. After 24 or 48 h the cells were incubated, according to the manufacturer's protocol, with XTT labelling mixture. After 4 h the formazan dye is quantified using a scanning multiwell spectrophotometer with a 495-nm filter. The absorbance is directly correlated with number of viable cells. The standard absorbance curve was drawn by means of untreated cells seeded at a concentration of from 1000 to 10 000 cells/well with an increasing rate of 1000 cells/well. All standards and experiments were performed in triplicates.
(§3) The leukemia cell lines K562/S, K562/Vcr 30, HL60/0 and HL60/Nov were proven to express the IGF-1R. This was assayed by Western blotting analysis, as described in Methods and Experiment 1 and 2. The 4 leukemia cell lines were seeded in 96-well plates (medium volume in a well was 100 μl), in RPMI40 medium supplemented with fetal calf serum. After 24 h podophyllotoxin, deoxypodophyllotoxin and other derivatives were added at different concentrations for 72 h. Cell viability was then assayed (see above). IC50 values for each inhibitor and cell lines are shown below (Table 5). The results are based on 3 different experiments.

Data set [3] relates to K562/S chronic myeloid leukemia cells. In words: Viability of leukemia cells, K562/S. In kind it is cell-based, human. The note with it: Homo sapiens, 72 h, read-out: IC50 for viability of leukemia cell lines. The procedure: as §1, §2, §3
A further data set relates to FM55 melanoma cells. In words: Cell viability (XTT), FM55. The note with it: Homo sapiens. In kind it is cell-based, human. Here is the method: as §2
5 different types of cell lines were seeded in 96-well plates (medium volume in a well was 100 μl), at a concentration of 10,000 cells/cm^2 in Minimal Essential Medium supplemented with fetal calf serum. When the cells had reached a concentration of 65,000 cells/cm^2, they were treated with different doses of podophyllotoxin and deoxypodophyllotoxin for 48 h. Cell viability was then assayed (see above). IC50 values for each inhibitor and cell line, calculated as the concentration, resulting in a 50% decrease in cell survival, are shown below. The results are based on 4 different experiments.
FM55 melanoma cells were cultured in the same way as described in Experiment 3 and were treated with different doses of podophyllotoxin analogues as described in Experiment 3.
(In general: Tetrazolium assays rely on reduction of a dye to a coloured formazan, in cell work by metabolically active cells.)

For data set [4], the system named is receptor of fibroblast growth factor. In words: Tyrosine phosphorylation of fibroblast growth factor receptor. In kind it is cell-based.
The subject of the next data set is BE melanoma cells. Nature of the data set: Cell viability (XTT), BE. The class given is cell-based. The note with it: Homo sapiens, 48 h. The procedure: as §2
(§4) 5 different types of cell lines were seeded in 96-well plates (medium volume in a well was 100 μl), at a concentration of 10,000 cells/cm^2 in Minimal Essential Medium supplemented with fetal calf serum. When the cells had reached a concentration of 65,000 cells/cm^2, they were treated with different doses of podophyllotoxin and deoxypodophyllotoxin for 48 h. Cell viability was then assayed (see above). […]

The subject of data set [5] is PC-3 prostate cancer cells. In words: Cell viability (XTT), PC-3. In kind it is cell-based. The note with it: Homo sapiens, 48 h. Here is the method:
as §2, §4

Data set [6] concerns MCF-7 breast cancer cells. Nature of the data set: Cell viability (XTT), MCF-7. The class given is cell-based, human. The note with it: Homo sapiens, MCF7, 48 h. Here is the method:
as §2, §4

This is an account of results in patent publication US7709526B2, “Use of cyclolignans and new cyclolignans” (Biovitrum AB, priority 2001, dated 2010).

Read-outs that look alike come from different tables or passages of the source.

receptor of epidermal growth factor, sequence (P00533 25-1210): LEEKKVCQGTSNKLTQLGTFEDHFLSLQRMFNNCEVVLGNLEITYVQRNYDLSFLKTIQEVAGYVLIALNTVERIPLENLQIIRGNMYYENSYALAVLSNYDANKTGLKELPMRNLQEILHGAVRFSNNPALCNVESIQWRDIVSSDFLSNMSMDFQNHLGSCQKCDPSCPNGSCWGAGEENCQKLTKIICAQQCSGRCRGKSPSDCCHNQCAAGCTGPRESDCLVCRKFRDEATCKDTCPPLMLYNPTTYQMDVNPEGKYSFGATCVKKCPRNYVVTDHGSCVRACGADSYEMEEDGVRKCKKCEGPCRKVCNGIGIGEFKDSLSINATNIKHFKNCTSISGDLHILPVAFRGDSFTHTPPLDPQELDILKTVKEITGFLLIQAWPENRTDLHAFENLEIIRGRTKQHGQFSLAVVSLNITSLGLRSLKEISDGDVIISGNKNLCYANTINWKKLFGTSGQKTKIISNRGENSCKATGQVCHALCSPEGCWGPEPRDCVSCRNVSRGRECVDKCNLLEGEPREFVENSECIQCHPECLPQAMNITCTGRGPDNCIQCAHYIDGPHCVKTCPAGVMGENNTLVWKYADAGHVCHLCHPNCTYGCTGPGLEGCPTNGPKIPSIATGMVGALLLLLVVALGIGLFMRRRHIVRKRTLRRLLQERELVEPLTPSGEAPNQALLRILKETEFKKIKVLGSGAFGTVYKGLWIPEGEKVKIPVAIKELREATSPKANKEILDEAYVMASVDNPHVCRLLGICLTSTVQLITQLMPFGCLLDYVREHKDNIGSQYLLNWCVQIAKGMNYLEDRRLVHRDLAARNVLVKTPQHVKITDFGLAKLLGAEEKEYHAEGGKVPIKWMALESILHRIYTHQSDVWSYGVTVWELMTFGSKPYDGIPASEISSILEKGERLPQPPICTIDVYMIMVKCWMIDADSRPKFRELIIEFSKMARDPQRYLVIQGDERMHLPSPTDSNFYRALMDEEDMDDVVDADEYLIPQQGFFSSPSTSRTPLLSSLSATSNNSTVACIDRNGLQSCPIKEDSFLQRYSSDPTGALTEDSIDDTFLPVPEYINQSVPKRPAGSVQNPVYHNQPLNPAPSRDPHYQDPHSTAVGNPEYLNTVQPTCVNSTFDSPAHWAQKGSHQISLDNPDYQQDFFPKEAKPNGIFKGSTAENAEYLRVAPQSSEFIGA

Turning to `COc1cc([C@@H]2c3cc4c(cc3[C@H](O)[C@H]3COC(=O)[C@H]23)OCO4)cc(OC)c1OC` [Podophyllotoxin, podophyllotoxin], the LD50 in rats in the data set on rats is 14 mg/kg. Further, the “interference with tyrosine phosphorylation of the receptor of epidermal growth factor” value in [1] is on record as “Neither do they interfere”. Besides, the water solubility in the data set “Water solubility” lay in the range of 100 to 200 µM. Further, the IC50 in data set [2] came out at 7 nM; in [3] it was 4 nM; with FM55 melanoma cells (FM55, Experiment 4 (Table 4), read-out: IC50 for viability of FM55 cells), 50 nM; with FM55 melanoma cells (FM55, melanoma, 48 h (Table 3), read-out: IC50 for cell viability), 40 nM; in the data set on BE melanoma cells, 50 nM; in [5], 60 nM. In addition, the IC50 in data set [6] was determined as 70 nM. The “interference with tyrosine phosphorylation of the receptor of fibroblast growth factor” value in data set [4] is given as “Neither do they interfere”.

As a reminder, the IC50 is the concentration that inhibits the measured activity by half.
